Results reported in patent US12440496B2, “Natriuretic peptide receptor a agonists useful for the treatment of cardiometabolic diseases, kidney disease and diabetes” (Merck Sharp & Dohme LLC, priority 2019, dated 2025).

Biological target: T1, hNPRA (Homo sapiens, UniProt P16066)
T1 construct: expressed in transfected cells
T1 sequence (P16066 33-1061): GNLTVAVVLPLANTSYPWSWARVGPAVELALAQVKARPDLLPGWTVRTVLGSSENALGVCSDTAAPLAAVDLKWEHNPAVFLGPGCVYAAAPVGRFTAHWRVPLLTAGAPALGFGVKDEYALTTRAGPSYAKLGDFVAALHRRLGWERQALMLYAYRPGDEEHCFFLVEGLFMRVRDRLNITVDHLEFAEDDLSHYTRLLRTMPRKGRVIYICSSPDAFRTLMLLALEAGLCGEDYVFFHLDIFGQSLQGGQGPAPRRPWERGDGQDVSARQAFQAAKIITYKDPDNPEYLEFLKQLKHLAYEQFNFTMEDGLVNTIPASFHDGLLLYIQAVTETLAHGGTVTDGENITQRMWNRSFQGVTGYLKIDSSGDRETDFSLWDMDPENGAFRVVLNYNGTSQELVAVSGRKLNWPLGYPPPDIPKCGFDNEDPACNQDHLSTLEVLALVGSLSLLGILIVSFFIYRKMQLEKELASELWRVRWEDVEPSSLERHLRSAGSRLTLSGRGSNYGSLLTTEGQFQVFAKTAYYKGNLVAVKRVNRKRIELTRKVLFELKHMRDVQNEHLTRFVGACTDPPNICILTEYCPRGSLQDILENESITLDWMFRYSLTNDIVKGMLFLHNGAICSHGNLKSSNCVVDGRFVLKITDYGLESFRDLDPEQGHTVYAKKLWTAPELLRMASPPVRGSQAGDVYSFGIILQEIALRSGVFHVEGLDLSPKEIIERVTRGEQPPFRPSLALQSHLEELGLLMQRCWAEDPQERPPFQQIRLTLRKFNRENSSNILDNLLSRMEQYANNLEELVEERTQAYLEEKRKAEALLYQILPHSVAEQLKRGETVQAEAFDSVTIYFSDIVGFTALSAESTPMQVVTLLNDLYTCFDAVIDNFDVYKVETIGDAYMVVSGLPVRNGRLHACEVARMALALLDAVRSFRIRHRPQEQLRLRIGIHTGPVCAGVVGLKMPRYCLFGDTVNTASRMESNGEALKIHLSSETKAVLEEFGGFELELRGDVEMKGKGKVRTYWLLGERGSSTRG
Assay: NPRA Functional Cell Assay (cGMP HTRF, NPRA HEK JumpIn stable cells)
Assay type: cell-based
Conditions: cGMP production, 1 hour at 37° C., 10-point dose response
Outline: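 cGMP HTRF read-out after 1 hour compound treatment at 37° C. of human NPRA-expressing HEK JumpIn cells, 1500 cells/well, in buffer with phosphodiesterase inhibitors IBMX and RO20 (100 uM each). Signal converted to [cGMP] by calibration curve; EC50s fitted by 4-parameter logistic; 50 nM h-ANP as positive response.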

Row | EC50 [nM] | SMILES
1 | 626 | CC(C)(C)[C@H]1CCc2nc3sc(C(=O)N[C@H](CCN4CCC(C(=O)O)CC4)c4ccc(N5CC(=O)NC5=O)nc4)nc3cc2C1 [Example 222, 1-((R)-3-((S)-7-(tert-butyl)-5,6,7,8-tetrahydrothiazolo[5,4-b]quinoline-2-carboxamido)-3-(6-(2,4-dioxoimidazolidin-1-yl)pyridin-3-yl)propyl)piperidine-4-carboxylic acid]
2 | 521 | CN1CC(NC(=O)c2cccc([C@@H](CCN3CCC[C@H]3CC(=O)O)NC(=O)c3nc4cc5c(nc4s3)CC[C@H](C(C)(C)C)C5)c2)C1 (racemic) [Example 106, 2-[rac-(2S)-1-[rac-(3R)-3-[3-[(1-methylazetidin-1-ium-3-yl)carbamoyl]phenyl]-3-[rac-(7S)-7-tert-butyl-5,6,7,8-tetrahydrothiazolo[5,4-b]quinoline-2-carbonyl]amino]propyl] pyrrolidin-2-yl]acetic acid; 2,2,2-trifluoroacetate]
3 | 655 | CC1([C@H]2CCc3nc4sc(C(=O)N[C@H](CCN5CCC(O)CC5)c5ccc(-c6cn[nH]c6)cc5)nc4cc3C2)CC1 [Example 267, (S)-N-((R)-1-(4-(1H-pyrazol-4-yl)phenyl)-3-(4-hydroxypiperidin-1-yl)propyl)-7-(1-methylcyclopropyl)-5,6,7,8-tetrahydrothiazolo[5,4-b]quinoline-2-carboxamide]
4 | 632 | CC(C)(C)[C@H]1CCc2nc3sc(C(=O)N[C@H](CCN4CCCC(O)C4)c4ccccc4)cc3cc2C1 (stereo partly drawn) [Example 251, (6S)-6-tert-butyl-N-[(1R)-3-(3-hydroxypiperidin-1-yl)-1-phenylpropyl]-5,6,7,8-tetrahydrothieno[2,3-b]quinoline-2-carboxamide]
5 | 1300 | CC1(O)CN(CC[C@@H](NC(=O)c2cc3cc4c(nc3s2)CC[C@H](C(C)(C)C)C4)c2ccc(-c3ccc(=O)[nH]c3)cc2)C1 (racemic) [Example 65, rac-(6S)-6-tert-butyl-N-[rac-(1R)-3-(3-hydroxy-3-methyl-azetidin-1-ium-1-yl)-1-[4-(6-oxo-1H-pyridin-3-yl)phenyl]propyl]-5,6,7,8-tetrahydrothieno[2,3-b]quinoline-2-carboxamide;formate]
6 | 753 | Cn1nccc1-c1ccc([C@@H](CCN2CCCCC2)NC(=O)c2cc3cc4c(nc3s2)CC[C@H](C(C)(C)C)C4)cc1 (racemic) [Example 4, rac-(6S)-6-tert-butyl-N-[rac-(1R)-1-[4-(2-methylpyrazol-3-yl)phenyl]-3-(1-piperidyl)propyl]-5,6,7,8-tetrahydrothieno[2,3-b]quinoline-2-carboxamide]
7 | 675 | CC(C)(C)[C@H]1CCc2nc3sc(C(=O)N[C@H](CCN4CCCCC4)c4ccc(-c5ccoc5)cc4)cc3cc2C1 (racemic) [Example 3, rac-(6S)-6-tert-butyl-N-[rac-(1R)-1-[4-(3-furyl)phenyl]-3-(1-piperidyl)propyl]-5,6,7,8-tetrahydrothieno[2,3-b]quinoline-2-carboxamide]
8 | 679 | CC(C)(C)[C@H]1CCc2nc3sc(C(=O)N[C@H](CCN4CC(O)C4)c4ccc(-c5ccc(=O)[nH]c5)cc4)cc3cc2C1 (racemic) [Example 48, rac-(6S)-6-tert-butyl-N-[rac-(1R)-3-(3-hydroxyazetidin-1-ium-1-yl)-1-[4-(6-oxo-1H-pyridin-3-yl)phenyl]propyl]-5,6,7,8-tetrahydrothieno[2,3-b]quinoline-2-carboxamide;formate]
9 | 1420 | Cn1cncc1-c1ccc([C@@H](CCN2CCC(O)CC2)NC(=O)c2nc3cc4c(nc3s2)CC[C@H](C(C)(C)C)C4)cc1 (racemic) [Example 179, rac-(7S)-7-tert-butyl-N-[rac-(1R)-3-(4-hydroxy-1-piperidyl)-1-[4-(3-methylimidazol-4-yl)phenyl]propyl]-5,6,7,8-tetrahydrothiazolo[5,4-b]quinoline-2-carboxamide]
10 | 1830 | CN(C)CC[C@@H](NC(=O)c1nc2cc3c(nc2s1)CC[C@H](C(C)(C)C)C3)c1cccc(C(N)=O)c1 (racemic) [Example 99, rac-(7S)-7-tert-butyl-N-[rac-(1R)-1-(3-carbamoylphenyl)-3-(dimethylamino)propyl]-5,6,7,8-tetrahydrothiazolo[5,4-b] quinoline-2-carboxamide]
11 | 2080 | CC(C)(C)[C@H]1CCc2nc3sc(C(=O)N[C@H](CCN4CCC(C(=O)O)CC4)c4ccccc4)cc3cc2C1 [Example 258, 1-[(3R)-3-({[(6S)-6-tert-butyl-5,6,7,8-tetrahydrothieno[2,3-b]quinolin-2-yl]carbonyl}amino)-3-phenylpropyl]piperidine-4-carboxylic acid]
12 | 210 | CN1CC[C@H](NC(=O)c2cccc([C@@H](CCN3CCC(O)CC3)NC(=O)c3nc4cc5c(nc4s3)CC[C@H](C(C)(C)C)C5)c2)C1 (racemic) [Example 138, rac-(7S)-7-tert-butyl-N-[rac-(1R)-3-(4-hydroxy-1-piperidyl)-1-[3-[[rac-(3S)-1-methylpyrrolidin-3-yl]carbamoyl]phenyl]propyl]-5,6,7,8-tetrahydrothiazolo[5,4-b]quinoline-2-carboxamide]
13 | 6320 | CC(C)(C)[C@H]1CCc2nc3sc(C(=O)NC(CCN4CCNCC4)c4ccccc4)cc3cc2C1 (stereo partly drawn) [Example 245, (6S)-6-tert-butyl-N-(1-phenyl-3-piperazin-1-ylpropyl)-5,6,7,8-tetrahydrothieno[2,3-b]quinoline-2-carboxamide]
14 | 1730 | CC(C)(C)[C@H]1CCc2nc3sc(C(=O)N[C@H](CCN4CCCCC4)c4ccc(-c5cnc(O)c(N)c5)cc4)cc3cc2C1 [Example 241, (6S)-N-{(1R)-1-[4-(5-amino-6-hydroxypyridin-3-yl)phenyl]-3-piperidin-1-ylpropyl}-6-tert-butyl-5,6,7,8-tetrahydrothieno[2,3-b]quinoline-2-carboxamide]
15 | 196 | CC(C)(C)[C@H]1CCc2nc3sc(C(=O)N[C@H](CCN4CCC(O)CC4)c4ccc(-c5c[nH]c(=O)c(F)c5)cc4)nc3cc2C1 [Example 82, (7S)-7-tert-butyl-N-[(1R)-1-[4-(5-fluoro-6-hydroxy-3-pyridyl)phenyl]-3-(4-hydroxy-1-piperidyl)propyl]-5,6,7,8-tetrahydrothiazolo[5,4-b]quinoline-2-carboxamide]
16 | 233 | CC(C)(C)[C@H]1CCc2nc3sc(C(=O)N[C@H](CCN4CCCCC4)c4ccc(-c5ccc(O)nc5)cc4)cc3cc2C1 (racemic) [Example 1, ammonium;5-[4-[rac-(1R)-3-(1-piperidyl)-1-[[rac-(6S)-6-tert-butyl-5,6,7,8-tetrahydrothieno[2,3-b]quinoline-2-carbonyl]amino]propyl]phenyl]yridine-2-olate]
17 | 207 | CN(C)CC[C@@H](NC(=O)c1nc2cc3c(nc2s1)CC[C@H](C(C)(C)C)C3)c1cccc(C(=O)N[C@H]2CCN(C)C2)c1 (racemic) [Example 87, rac-(7S)-7-tert-butyl-N-[rac-(1R)-3-(dimethyl-amino)-1-[3-[rac-(3S)-1-methylpyrrolidin-3-yl]carbamoyl]phenyl]propyl]-5,6,7,8-tetrahydrothiazolo[5,4-b] quinoline-2-carboxamide]
